Structures can show the parent of a compound that is named as a salt. Where two headings read alike, the source gives them in different places.
How the values were obtained:
muscarinic binding site [1] = experiment: RCMD screening assay: inhibition of binding of radiolabeled cis-methyldioxolane (muscarinic agonist) to rat cerebral cortex tissue; conditions: read-out: IC₅nM RCMD
Procedure: Similarly, in the RCMD screening assay, described more fully by T. W. Vickeroy, et al, 229(3):747 (1984), rat cerebral cortex tissue was treated with radiolabeled cis-methyldioxolane, a known muscarinic binding site agonist. The concentrations of test compounds required to inhibit 50% of the binding of this muscarinic agonist were then determined. […]

muscarinic binding site [2] = conditions: rat cerebral cortex tissue, radiolabeled quinuclidinyl benzilate, read-out: IC₅₀nM RQNB

| Structure (SMILES) | IC50 (muscarinic binding site [1]) | IC50 (muscarinic binding site [2]) | IC50 (muscarinic binding site [1]; hydrochloride) | IC50 (muscarinic binding site [2]; hydrochloride) |
| --- | --- | --- | --- | --- |
| CCCON=C1CN2CCC1C2 (centres unmarked) [Example 6, 1-Azabicyclo[2.2.1]-heptan-3-one, O-propyloxime hydrochloride] | 120 nM | 3850 nM | – | – |
| c1ccc(CON=C2CN3CCC2C3)cc1 (centres unmarked) [Example 5, 1-Azabicyclo[2.2.1]-heptan-3-one, O-(phenylmethyl)oxime hydrochloride] | 133 nM | 5950 nM | – | – |
| C=CCON=C1CN2CCC1C2 (centres unmarked) [Example 8, 1-Azabicyclo[2.2.1]-heptan-3-one, O-(2-propenyl)oxime oxalate] | 53 nM | 4780 nM | – | – |
| CCON=C1CN2CCC1C2 (centres unmarked) [Example 2, 1-Azabicyclo[2.2.1]hept-3-one, O-ethyloxime hydrochloride] | 12.5 nM | 3110 nM | – | – |
| N#CCON=C1CN2CCC1C2 (centres unmarked) [Example 27, {[(1-Azabicyclo[2.2.1]-heptan-3-ylidene)amino]-oxy}acetonitrile hydrochloride] | 116 nM | 8820 nM | – | – |
| C#CCON=C1CN2CCC1C2 (centres unmarked) [Example 4, 1-Azabicyclo[2.2.1]-heptan-3-one, O-(2-propynyl)oxime hydrochloride] | 3.5 nM | 2970 nM | – | – |
| C=CC=CCON=C1CN2CCC1C2 (single isomer, unassigned) [28 (Isomer B), 1-Azabicyclo[2.2.1]-heptan-3-one, O-(2,4-pentadienyl)oxime hydrochloride] | – | – | 256 nM | 9650 nM |
| CON=C1CN2CCC1C2 (centres unmarked) [Example 3, 1-Azabicyclo[2.2.1]heptan-3-one, O-methyloxime hydrochloride] | 18.2 nM | 24600 nM | – | – |
| CC(C)ON=C1CN2CCC1C2 (centres unmarked) [Example 7, 1-Azabicyclo[2.2.1]-heptan-3-one, O-(1-methylethyl)oxime hydrochloride] | 46 nM | 2030 nM | – | – |
| C=CC=CCON=C1CN2CCC1C2 (single isomer, unassigned) [28 (Isomer A), 1-Azabicyclo[2.2.1]-heptan-3-one, O-(2,4-pentadienyl)oxime hydrochloride] | – | – | 12.9 nM | 434 nM |
